These results are taken from PMC11087982, “In vitro and in vivo activities of a trithiolato-diRuthenium complex conjugated with sulfadoxine against the apicomplexan parasite Toxoplasma gondii” (International Journal for Parasitology: Drugs and Drug …, 2024).

The structures appear in SMILES notation. “Also recorded” adds a separate entry of the source. Like-named read-outs stand apart in the source and are kept apart here.

Series [1] deals with T. gondii Me49 tachyzoites. The experiment in a line: Long-term treatment of infected HFF to test static or cidal effect. The following applies: 0.5 μM. In kind it is cell-based, Toxoplasma gondii. How it is done: On day 0, the HFF monolayers were infected with 5 × 10^5 T. gondii Me49 tachyzoites. At 4 h post infection (p.i.) the medium was removed, flasks were washed twice with sterile PBS and fresh medium containing either RU-SDX at 0.25 μM or 0.5 μM, or DMSO (0.05%) as a negative control, were added. Treatments were applied during 3 and 6 days and cultures were maintained in normal DMEM complete media and examined light microscopically daily. After drug removal, flasks were also monitored microscopically daily for one week.

The test system of series [2] is zebrafish (Danio rerio) embryo. Kind of series: Zebrafish embryo acute toxicity test. Type of series: in vivo. As to conditions: for Malformations (No. embryos with malformations / fertilized embryos) / Mortality (No. of dead embryos / fertilized embryos) / Unaffected embryos (No. / fertilized embryos): 96 h. How it is done: The zebrafish (Danio rerio) embryo acute toxicity test was carried out to assess the impact of RU-SDX on early embryo development as previously described ([Anghel et al., 2020]). RU-SDX was assessed at 0.2, 2 and 20 μM, while the bumped kinase inhibitor BKI-1748 (applied at 50 μM) was used as a positive control resulting in 100% mortality of zebrafish embryos ([Anghel et al., 2020]). For each test- and control condition, a 24 well plate containing 24 fertilized eggs (1 egg/well) was used. Negative control plates contained 1 ml of E3 medium/osmosis water, whereas eggs in solvent control plates were incubated in E3 medium containing 0.01% DMSO ([Anghel et al., 2020]). For each treatment, a survival rate was calculated that reflected the degree of either embryo death or malformations during the first 96 h of development in relation to eggs maintained without compound.

Series [3] has as its system Non-infected HFF. The experiment in a line: TMRE uptake assay (mitochondrial membrane potential), non-infected HFF. Type of series: cell-based, human. The following applies: 0.5 μM, 3.5 h. How it is done:
(§1) 5 × 10^5 HFF were seeded into T25 culture flasks in DMEM complete medium and maintained in culture for 72 h to reach ⁓80% confluency. HFF monolayers were left either non-infected or were infected with 2 × 10^5 T. gondii Me49 tachyzoites. After another 48 h, the medium was removed from infected and non-infected T25 flasks and was replaced either by medium containing 0.5 μM RU-SDX, or in the case of non-treated controls, medium containing 0.05% DMSO. As positive controls, the two mitochondrial uncouplers FCCP and CCCP were applied at a concentration of 80 and 50 μM, respectively. PYR was applied at 0.5 μM as a control drug not affecting the MMP, and RU-adenine, used as a conjugate shown earlier to impact on the mitochondrial ultrastructure in T. gondii ([Anghel et al., 2021]; [Desiatkina et al., 2022b]), was also tested at 0.5 μM ([Anghel et al., 2021]; [Desiatkina et al., 2022b]). […] Fluorescence was measured using a Hidex Sense microplate reader instrument ([…]) with the excitation wavelength 544/20 nm and emitted light collected at 590/20 nm. Value from wells belonging to the same experimental condition were summed and the mean TMRE uptake in each condition was calculated from three biological replicates.

Series [4] has as its system T. gondii-infected HFF. The experiment in a line: TMRE uptake assay (mitochondrial membrane potential), T. gondii-infected HFF. Type of series: cell-based, Toxoplasma gondii Me49 in human HFF. The following applies: 0.5 μM, 3.5 h. How it is done: as §1
The subject of series [5] is T. gondii β-gal tachyzoites. The following applies: cited from earlier work.

For `CC(C)(C)c1ccc(C[S-])cc1.CC(C)(C)c1ccc(C[S-])cc1.COc1ncnc(NS(=O)(=O)c2ccc(NC(=O)Cc3ccc([S-])cc3)cc2)c1OC.Cc1ccc(C(C)C)cc1.Cc1ccc(C(C)C)cc1.[Cl-].[Ru+2].[Ru+2]` [RU-SDX], the “parasiticidal or parasitostatic action in vitro” value in series [1] (3 and 6 days treatment) is recorded as “parasitostatic but not parasiticidal; also recorded: did not act parasiticidal”. Also, in series [1] (6 days of continuous treatment, then culture without compound), the “tachyzoite re-emergence after removal of the drug” value was not above 4 days. Further, the “survival score (surviving embryos without malformations)” value in series [2] (0.2 μM) is on record as 95%; in series [2] (2 μM), 90%; in series [2] (20 μM) it was “no surviving embryos”. Also, the “Malformations (No. embryos with malformations / fertilized embryos)” value in series [2] (0.2 μM) was 0/20; in series [2] (2 μM) it was 1/20; in series [2] (20 μM), 0/20. In addition, the “Mortality (No. of dead embryos / fertilized embryos)” value is 1/20 in series [2] (0.2 μM), 1/20 in series [2] (2 μM) and 20/20 in series [2] (20 μM). For the same compound, the “Unaffected embryos (No. / fertilized embryos)” value is listed as 19/20 in series [2] (0.2 μM), 18/20 in series [2] (2 μM) and 0/20 in series [2] (20 μM). Further, in series [2] (20 μM, h of embryogenesis), the “time of peak of mortality of zebrafish embryos” value is 72 h. Moreover, the “TMRE fluorescence intensity / TMRE uptake (percentage of non-treated control = 100%)” value in series [3] is given as 140%; in series [4], 130%. Besides, the “proliferation (% of control ± SD)” value in series [5] (1 μM, ref Desiatkina et al., 2021) is “^b^, ^∗∗∗11 ± 1%”; in series [5] (1.1 μM, ref Desiatkina et al., 2021) it was “^b^,*116 ± 1%”; in series [5] (1.25 μM, ref Desiatkina et al., 2021, Păunescu et al.), “^b^, ^a0 ± 0%”.
